Test results published in publication PMC10534693, “A High-Performance Liquid Chromatography with Photodiode Array Detection Method for Simultaneous Determination of Three Compounds Isolated from Wikstroemia ganpi: Assessment of the Effects on Cytochrome P450-Mediated Metabolism In Vitro and In Vivo” (Nutrients, 2023).
Read-outs that look alike come from different tables or passages of the source.

Assays:
[1] = In vivo pharmacokinetic study of BUS with or without WGM in rats; details: rat, plasma, po, 30 mg/kg; for AUC(0-inf) / Cmax / half-life: mean ± SD, n = 6
Protocol: The blood was immediately centrifuged at 3000× g for 10 min at 4 °C to obtain the plasma, which was pretreated and analyzed using the UPLC-MS/MS method.
(§1) The average plasma pharmacokinetic parameters, including the area under the curve from time 0 extrapolated to infinity (AUCinf) and the terminal half-life (t1/2), were determined using a non-compartment model (WinNonlin Ver. 3.1; Certara, Inc., Princeton, NJ, USA). The peak time (Tmax) and maximal concentration (Cmax) were obtained directly from the observed plasma concentration-time profiles. A t-test was used to compare two unpaired means, and a p-value of below 0.05 was considered statistically significant.

CYP3A = assay: Inhibition of CYP3A-mediated metabolism (disappearance) of buspirone in rat liver S9 fraction; type: in vitro ADME; details: 1 μM BUS; for IC50 at 30 min: probe buspirone (BUS), rat liver S9 fraction 1 mg/mL, n = 5
Protocol: CYP isoforms-specific probe substrates were BUS for CYP3A, DIC for CYP2C, and DEX for CYP2D [34, 35, 37]. Dose–response curves assessed metabolic inhibition of BUS in the presence of 1 μM BUS and 10 different concentrations (0, 0.1, 0.5, 1, 2, 5, 10, 20, 50, and 100 μM) of 7-methoxyluteolin-5-O-glucoside, pilloin 5-O-β-D-glucopyranoside or rutarensin. The mixture without substrate and inhibitor was incubated for 5 min at 37 °C, after which the substrate and inhibitor were added to initiate the enzyme reaction. After incubating BUS (reaction time: 30 min), DIC and DEX (reaction time: 60 min) at 37 °C at a speed of 500 oscillations/min, a sample was obtained from the reaction mixture and mixed with cold acetonitrile containing an internal standard (IS) to terminate the reaction. After sample preparation, the samples were analyzed using the ultra-performance liquid chromatography–tandem mass spectrometry (UPLC-MS/MS) method (see the sections entitled ‘Biological Sample Preparation’ and ‘UPLC-MS/MS Conditions’ in the Supplementary Materials).
as §1

[2] = Stability of marker components in WGM sample and reference stock solutions (HPLC-PDA peak area); type: physicochemical; details: for Peak Area (%) 6 h / Peak Area (%) 24 h / Peak Area (%) 48 h / Peak Area (%) 72 h: vs 0 h, n = 5; for Decrease of peak area / Increase of peak area: Reference solution
Source text: The developed HPLC-PDA simultaneous analysis conditions were validated according to ICH Q2(R1) guidelines. The validation characteristics included specificity, linearity, detection limit, quantitation limit, precision, recovery, and stability. Specificity is defined as the ability to clearly identify an analyte in a sample containing a mixture of impurities. This was verified by comparing and overlaying the chromatograms and PDA spectra obtained from the WGM samples and the reference mixture to confirm that the retention time (tR), spectral pattern, and maximum absorption wavelength (λmax) of the three reference compounds were consistent. Linearity is a test used to derive calibration curves by obtaining measurements that are directly proportional to the concentration of the substance being examined within a certain range. The stock solutions of 7-methoxyluteolin-5-O-glucoside (1), pilloin 5-O-β-D-glucopyranoside (2), and rutarensin (3) were diluted to six target concentrations (5.0, 50.0, 250.0, 400.0, 500.0, and 600.0 μg/mL) in DMSO/MeOH (50:50, v/v) mixtures, and six replicates (n = 6) were performed for each working solution. The calibration curve was expressed using a linear equation (y = ax + b) through linear regression analysis as a function of the area (y) vs. the concentration (x) of each reference peak, and the slope (a), y-intercept (b), and correlation coefficient (r^2) were calculated. The correlation coefficients for the acceptance criteria exceeded 0.999. The detection limit (DL) and quantitation limit (QL) are the minimum detection and quantitation limits of the analyte in the sample, respectively, that can be reliably quantified. These values were measured using the standard deviation (SD) of the y-intercept (σ) and the slope of the calibration curve (S) derived based on the linearity evaluation and were calculated as follows: DL = 3.3 σ/S and QL = 10 σ/S. Precision is an analytical procedure used to evaluate repeatability and reproducibility. The repeatability of the experiment was assessed by measuring the intra- and inter-day precision. Three reference compounds were repeated five times (n = 5) at low, medium and high concentration levels (10.0, 100.0, and 300.0 µg/mL). Intra-day precision was injected on the same day, while inter-day precision was injected on days 1, 3, and 5. The results were determined using the relative standard deviation (RSD) of the peak area. The %RSD was calculated as follows: RSD (%) = (standard deviation/mean measured amount) × 100. %RSD value of <2% means that the developed HPLC-PDA method is precise and reproducible enough for simultaneous analysis and evaluation of the three compounds. […] The analysis was repeated three times (n = 3), and the measured values were calculated as follows: % recovery = (found concentration-original concentration)/spiked concentration × 100. Stability was used to evaluate the degree of change in the solution concentration with storage conditions and time. […] The stability results were evaluated as the %peak area change and %RSD between the mean peak area of the control group (0 h) and that of the experimental group (6, 24, 48, and 72 h).

[3] = BUS 30 mg/kg oral co-administered with 1 g/kg WGM
[4] = Reference solution (DMSO/MeOH 50:50), 4 °C
[5] = Reference solution (DMSO/MeOH 50:50), R.T.

SMILES: O=C1CC2(CCCC2)CC(=O)N1CCCCN1CCN(c2ncccn2)CC1 [BUS, Buspirone]
- Tmax ([1]; 30 mg/kg oral, with or without WGM, read-out: Tmax of BUS): 5 to 15 min
- AUC(0-inf) [1, 3]: 1980 ng·h/mL
- Cmax [1, 3]: 2020 ± 619 ng/mL
- half-life [1, 3]: 103 ± 27 min
- Tmax ([1]; BUS 30 mg/kg oral co-administered with 1 g/kg WGM, n = 6, read-out: Tmax (converted)): 5 min
- AUC(0-inf) ([1]; BUS alone, 30 mg/kg oral): 1640 ng·h/mL
- Cmax ([1]; BUS alone, 30 mg/kg oral): 1630 ± 762 ng/mL
- half-life ([1]; BUS alone, 30 mg/kg oral): 111 ± 23 min
- Tmax ([1]; BUS alone, 30 mg/kg oral, n = 6, read-out: Tmax (converted)): 10 min

SMILES: COc1cc(O[C@@H]2O[C@H](CO)[C@@H](O)[C@H](O)[C@H]2O)c2c(=O)cc(-c3ccc(O)c(O)c3)oc2c1 [Compound 1, 7-methoxyluteolin-5-O-glucoside]
- IC50 at 30 min (CYP3A): 2.73 µM
- Peak Area (%) 6 h [2, 4]: 99.15%
- Peak Area (%) 24 h [2, 4]: 96.60%
- Peak Area (%) 48 h [2, 4]: 96.58%
- Peak Area (%) 72 h [2, 4]: 97.39%
- Peak Area (%) 6 h [2, 5]: 99.46%
- Peak Area (%) 24 h [2, 5]: 98.56%
- Peak Area (%) 48 h [2, 5]: 100.34%
- Peak Area (%) 72 h [2, 5]: 99.03%
- Decrease of peak area ([2]; room temperature, after 6 h): 0.54%
- Peak Area (%) 6 h ([2]; WGM solution, 4 °C): 100.10%
- Peak Area (%) 24 h ([2]; WGM solution, 4 °C): 98.87%
- Peak Area (%) 48 h ([2]; WGM solution, 4 °C): 98.63%
- Peak Area (%) 72 h ([2]; WGM solution, 4 °C): 101.60%
- Peak Area (%) 6 h ([2]; WGM solution, R.T.): 100.80%
- Peak Area (%) 24 h ([2]; WGM solution, R.T.): 100.10%
- Peak Area (%) 48 h ([2]; WGM solution, R.T.): 97.43%
- Peak Area (%) 72 h ([2]; WGM solution, R.T.): 100.99%

SMILES: COc1cc(O[C@@H]2O[C@H](CO)[C@@H](O)[C@H](O)[C@H]2O)c2c(=O)cc(-c3ccc(OC)c(O)c3)oc2c1 [Compound 2, pilloin 5-O-β-D-glucopyranoside]
- IC50 at 30 min (CYP3A): 18.7 µM
- Peak Area (%) 6 h [2, 4]: 99.29%
- Peak Area (%) 24 h [2, 4]: 102.15%
- Peak Area (%) 48 h [2, 4]: 104.42%
- Peak Area (%) 72 h [2, 4]: 101.79%
- Peak Area (%) 6 h [2, 5]: 101.71%
- Peak Area (%) 24 h [2, 5]: 103.18%
- Peak Area (%) 48 h [2, 5]: 107.58%
- Peak Area (%) 72 h [2, 5]: 103.48%
- Increase of peak area ([2]; 4 °C, after 48 h): 4.42%
- Increase of peak area ([2]; R.T., after 48 h): 7.58%
- Increase of peak area ([2]; room temperature, after 6 h): 1.71%
- Peak Area (%) 6 h ([2]; WGM solution, 4 °C): 100.32%
- Peak Area (%) 24 h ([2]; WGM solution, 4 °C): 99.18%
- Peak Area (%) 48 h ([2]; WGM solution, 4 °C): 98.86%
- Peak Area (%) 72 h ([2]; WGM solution, 4 °C): 102.02%
- Peak Area (%) 6 h ([2]; WGM solution, R.T.): 101.41%
- Peak Area (%) 24 h ([2]; WGM solution, R.T.): 101.08%
- Peak Area (%) 48 h ([2]; WGM solution, R.T.): 98.97%
- Peak Area (%) 72 h ([2]; WGM solution, R.T.): 103.35%

SMILES: COc1cc2cc(Oc3ccc4ccc(=O)oc4c3)c(=O)oc2cc1O[C@@H]1O[C@H](COC(=O)CC(C)(O)CC(=O)O)[C@@H](O)[C@H](O)[C@H]1O (some centres unmarked) [Compound 3, rutarensin]
- Inhibition of BUS metabolism (dose-response) (CYP3A; rat liver S9 fraction, 0-100 μM marker compound): did not inhibit
- Peak Area (%) 6 h [2, 4]: 98.02%
- Peak Area (%) 24 h [2, 4]: 99.40%
- Peak Area (%) 48 h [2, 4]: 98.78%
- Peak Area (%) 72 h [2, 4]: 101.22%
- Peak Area (%) 6 h [2, 5]: 96.77%
- Peak Area (%) 24 h [2, 5]: 98.82%
- Peak Area (%) 48 h [2, 5]: 98.54%
- Peak Area (%) 72 h [2, 5]: 98.72%
- Decrease of peak area ([2]; room temperature, after 6 h): 3.23%
- Peak Area (%) 6 h ([2]; WGM solution, 4 °C): 100.19%
- Peak Area (%) 24 h ([2]; WGM solution, 4 °C): 99.30%
- Peak Area (%) 48 h ([2]; WGM solution, 4 °C): 98.91%
- Peak Area (%) 72 h ([2]; WGM solution, 4 °C): 102.15%
- Peak Area (%) 6 h ([2]; WGM solution, R.T.): 101.30%
- Peak Area (%) 24 h ([2]; WGM solution, R.T.): 101.14%
- Peak Area (%) 48 h ([2]; WGM solution, R.T.): 98.98%
- Peak Area (%) 72 h ([2]; WGM solution, R.T.): 103.56%
